Assay [1] has as its system TAR RNA. Nature of the assay: L-arginine-Amberlite affinity column elution of TAR RNA. The format is binding, HIV-1. To be noted: concentration that elutes 50% of TAR RNA from L-arginine-Amberlite affinity column. The protocol: (§1) The model Tat peptide (R52: […]) was prepared by the Weizmann Institute Chemical Services and was purified by reverse phase HPLC (C-18) (Lapidot et al., 1995). […] The RNA was transcriptionally labeled with α-^32P UTP, purified on a 12% polyacrylamide/7M urea gel (19:1 acrylamide:bis-acrylamide) and was eluted from the gel by 0.5M ammonium acetate, 10 mM magnesium acetate, 1 mM EDTA and 0.1% SDS. The sample was subjected to phenol extraction and the RNA was precipitated from 70% ethanol. Purified RNA was dissolved in diethyl pyrocarbonate-treated water (DEPC water), its concentration was determined by UV absorption at 260 nm and the specific radioactivity was determined by scintillation counting on a LS 1701 “Bruker” counter.
The L-arginine-Amberlite resin was prepared as follows: Carboxyl groups of Amberlite IRC-50 resin were covalently modified with ethanolamine using 1-(3-dimethylaminopropyl) 3-ethylcarbodiimide, a water-soluble coupler. The hydroxy ethyleneamide resin obtained was washed and dried, and L-arginine (12-16 μmols per ml of resin) was coupled to the hydroxy groups of the resin via an isourea moiety using a standard cyanogen bromide protocol. The final concentration of arginine residues was 12-16 μmol per ml of resin. The swollen L-arginino-Amberlite resin (200 μl) was packed into a plastic mini-column and equilibrated with buffer containing 40 mM Tris HCl, pH 7.5, 250 mM NaCl, 0.5 mM EDTA and 5 mM MgCl2 (buffer A). Approximately 1 ng of ^32P-UTP labeled TAR RNA in buffer A was loaded on the column. The column was eluted 3 to 5 times with 400 μl portions of buffer A, until no radioactivity was detected in the eluent. […] Each of the test compounds was dissolved in buffer A and passed through the column in 300 μl portions. Radioactivity of the eluates was determined by scintillation counting on a LS 1701 “Bruker” counter. CE50 values, the concentrations of inhibitors eluting 50% of the radioactive material from the column, were determined.

The subject of assay [2] is TAR RNA. The experiment in a line: RNase A footprinting of TAR RNA. The class given is binding, HIV-1. To be noted: 1 μM TAR, 200 pM RNase A. The protocol: In a typical experiment 10 μl of 5 mM cacodylate buffer pH 6.5, containing 25 mM KCl and 50-100 ng 5′ ^32P-labeled TAR RNA (approximately 0.5-1 μM) were incubated with 200 pM RNase A (Sigma) at room temperature for 10 minutes in the presence of Tat R52 and the conjugates of the invention at various concentrations. In the competition experiments, the mixture was supplemented with 0.5 μg yeast tRNA (Sigma). After the incubation, 10 μl of formamide/bromphenol blue loading buffer was added to the samples. The samples were heated to 80° C. for 2 min and were resolved by electrophoresis on 40 cm×0.8 mm 20% polyacrylamide denaturing gel (7M urea) for 3 hours at 55° C. The results were visualized by a phosphoimager as described above and quantitated using ImageQuant software.
TAR RNA and RNase A concentrations were established by co-titration. To produce a “single-hit” kinetics conditions, 1 μM TAR versus 200 pM RNase A were selected. Tat R52 and AAC concentrations were determined by titration. […] RNase A cleaved TAR RNA in an uneven manner (FIG. 4A., lane 2). The most susceptible regions for cleavage were the single-stranded loop, nucleotides U31-G34 as well as C24 and U25 of the bulge. Strong cleavage was also observed at G21-G41 and A20-U42 pairs (lower stem). Binding of R52 (2-4 μM) caused a weakening of the bands in the upper stem region, (G26-C39, A27-C38, as well as U40) (FIG. 4A., lanes 3, 4). At 4 μM R52, the cleavage at G34 (loop) was enhanced, as well as a certain enhancement of bands A20, G21, U23 and U25 was observed. Remarkably, the band corresponding to the R52-TAR complex still was observed on the gels even after electrophoresis under strongly denaturing conditions. In the presence of R4K (10-20 μM), the upper stem (G26-C29), the lower stem and the bulge (G21-U23, partially C24 and U25) were protected as well as C38, C39 and U40. Cleavage at C19 and A20 of the lower stem and C30, G33 and G34 of the loop was enhanced by 10 μM R4K, whereas with 20 μM R4K the protection of C30, G34 and A20-G21 was observed (FIG. 4A., lanes 5, 6). […] Cleavages at C19-A20 in the lower stem as well as at G30 and G34 in the loop were observed (FIG. 4A., lanes 7, 8). In the presence of GB4K (20 μM) no significant protection was observed.

For assay [3], the system named is TAR RNA. The experiment in a line: Gel-shift binding to TAR RNA. Also on record: species or system HIV-1. The settings on record: 50% binding; TAR RNA 2 nM.
In assay [4] the test system is TAR RNA. Nature of the assay: Gel-shift binding to TAR RNA. Also on record: species or system HIV-1. The settings on record: for CD50: 50% binding; for effect of ten-fold excess of yeast tRNA on complex formation with TAR: ten-fold excess of tRNA (100 ng per lane). The protocol: as §1
To study the affinity of the test compounds to TAR, gel-shift and gel-shift inhibition experiments were performed. The binding reaction mixtures (20 μl) contained ^32P-labeled TAR (18-44) RNA oligonucleotide (3-6 nM) and Tat R52 peptide (35-75 nM) in a binding buffer (10 mM Tris-HCl pH 7.5, 70 mM NaCl, 0.2 mM EDTA and 5% glycerol). The reaction mixtures were incubated for 10 minutes on ice and resolved by electrophoresis on a 10% non-denaturing polyacrylamide gel (40:1 acrylamide:bis-acrylamide) at 200V, for 3 h at 4° C. Gels were dried and visualized by autoradiography. Quantitations were obtained by optical densitometry of films. Alternatively, results were visualized by exposing the wet gels to Fuji phosphoimager plates, which were read on a “Storm 820” (Molecular Dynamics) phosphoimager. […]
Binding of aminoglycoside-arginine conjugates (AAC) to TAR RNA was measured by adding varying concentrations of each conjugate to reaction mixtures (20 μl) which contained 12 nM ^32P-labeled TAR RNA. The reactions were analyzed as described above.

With “YKKKRKKKKKA [Tat R52 peptide, Tat-derived model undeca peptide, containing a single arginine moiety at position 52 of native Tat protein, in the strand of lysines, reference compound]”, in assay [1], the CE50 amounted to 0.5 mM. Further, the “concentration giving effective protection of TAR” value in assay [2] was determined as 2 µM. Further, the CD50 in assay [3] is 6 to 12 nM; in assay [4] (TAR RNA 6 nM), 35 nM; in assay [4] (TAR RNA 12 nM), 75 nM; in assay [4] (TAR RNA 20 nM) it was 200 nM. Moreover, the “effect of ten-fold excess of yeast tRNA on complex formation with TAR” value is given as “do not inhibit the binding” in assay [4] and “did not inhibit complex formation” in assay [4] (listed as R52).

The values are drawn from US6642365B1, “Anti-(retro)viral conjugates of saccharides and acetamidino or guanidino compounds” (Yeda Research and Development Co. Ltd., priority 2001, dated 2003).
